Assays:
HIV-1/MN in MT-2-cells = experiment: Protection of HIV-1/MN-infected MT-2-cells, reverse transcriptase activity; type: cell-based; settings: Human immunodeficiency virus 1, MT2, 96 h; 90% reduction of RT activity; HIV-1-infected MT-2-cells; 4 days; read-out: ED90 (the source's name)
Text: In a further test it can be shown that compounds of formula I protect cells normally infected by HIV from such an infection or at least slow down such an infection. For this test, MT-2-cells infected with HIV-1/MN are used. MT-2-cells have been transformed with a continuous producer of HTLV-1 (a virus causing leukaemia); they are therefore especially sensitive to the cytopathogenic effect of HIV. MT-2-cells can be obtained via the AIDS Research and Reference Reagent Program, Division of AIDS, NIAID, NIH from Dr. Douglas Richman (see J. Biol. Chem. 263, 5870-5875 (1988) and also Science 229, 563-566 (1985)). The MT-2-cells are cultured in RPMI 1640-medium (Gibco, Scotland; RPMI comprises an amino acid mixture without glutamine) supplemented with 10% heat-inactivated foetal calf serum, glutamine and standard antibiotics. In all cases the cells, and also the virus stock solution used for the infection (HIV-1/MN), are free of mycoplasms. The virus stock solution is prepared as a cell culture supernatant of the permanently infected cell line H9/HIV-1/MN, which can likewise be obtained via the AIDS Research and Reference Program, Division of AIDS, NIAID, NIH from Dr. Robert Gallo (see also Science 224, 500-503 (1984) and Science 226, 1165-1170 (1984)). The titre of the HIV-1/MN virus stock solution (determined by titration onto MT-2-cells) is 4.2×10^5 TCID50/ml (TCID50=Tissue Culture Infective Dose=dose that infects 50% of the MT-2-cells). In order to measure the infection-inhibiting action of the compounds of formula I, 50 μl of the test compound in question in culture medium and 2800 TCID50 of HIV-1/MN in 100 μl of culture medium are added to 2×10^4 exponentially growing MT-2-cells which have been applied in 50 μl of culture medium to 96-well microtitre plates (having a round base). After 4 days' incubation (at 37° C., 5% CO2) a 10 μl sample of the supernatant is taken from each well, transferred to a further 96-well microtitre plate and (if necessary) stored at -20° C. In order to measure the activity of the virus-associated reverse transcriptase, 30 μl of reverse transcriptase (RT) cocktail are added to each sample. The reverse transcriptase cocktail consists of 50 mM Tris (α,α,α-tris(hydroxymethyl)methylamine, Ultra pur, Merck, Germany) pH 7.8; 75 mM KCl, 2 mM dithiothreitol, 5 mM MgCl2; 0.1% Nonidet P40 (detergent; Sigma, Switzerland), 0.8 mM EDTA, 10 μg/ml Poly-A (Pharmacia, Uppsala, Sweden) and 0.16 μg/ml oligo(T) (=pdT(12-18), Pharmacia, Uppsala, Sweden) as "template primer"--if desired, the mixture is filtered through a […] Acrodisc filter (Gelman Sciences Inc., Ann Arbor, USA). It is stored at -20° C. Prior to the test, 0.1% (v/v) [alpha-^32 P]dTTP is added to aliquots of the solution in order to establish a final radioactivity of 10 μCi/ml.
After mixing, the plate is incubated for 2 hours at 37° C. 5 μl of the reaction mixture are transferred to DE81 paper (Whatman, one filter per well). The dried filters are washed three times for 5 minutes with 300 mM NaCl/25 mM trisodium citrate and then once with ethanol and again dried in the air. The radioactivity on the filters is measured in a Matrix Packard 96-well counter (Packard, Zurich, Switzerland). The ED90 values are calculated and are defined as the concentration of the test compound that reduces the RT activity by 90% in comparison with a control without test compound. […]

HIV-1-protease = target: T1, HIV-1-protease (Human immunodeficiency virus type 1 group M subtype B, UniProt P04585); experiment: HIV-1-protease inhibition with icosapeptide substrate […] (HPLC); type: biochemical; settings: pH 6.0, 37° C., 1 hour, icosapeptide 122 μM
T1 construct: made in house
Experimental: The inhibitory action of the compounds of formula I on the proteolytic activity of HIV-1-protease can be shown, for example, analogously to the method described by A. D. Richards et al., J. Biol. Chem. 265(14), 7733-7736 (1990). In that method the inhibition of the action of HIV-1-protease (prepared in accordance with S. Billich et al., J. Biol. Chem. 263(34), 17905-17908 (1990)) is measured in the presence of the icosapeptide […] SEQ ID NO:1, a synthetic substrate of HIV-1-protease, prepared by peptide synthesis in accordance with known procedures, see J. Schneider et al., Cell 54, 363-368 (1988)), which contains as substrate analogue one of the cleavage sites of the gag-precursor protein (natural substrate of HIV-1-protease). That substrate and its cleavage products are analysed by high performance liquid chromatography (HPLC).
The test compound is dissolved in dimethyl sulfoxide. The enzymatic test is carried out by adding suitable dilutions of the inhibitor in 20 mM β-morpholinoethanesulfonic acid (MES) buffer pH 6.0 to the test mixture. That mixture consists of the above-mentioned iscosapeptide (122 μM) in 20 mM MES-buffer pH 6.0. 100 μl are used per test batch. The reaction is started by the addition of […] of HIV-1-protease solution and is stopped after one hours incubation at 37° C. by the addition of 10 μl of 0.3M HClO4. After centrifugation of the sample at 10,000×g for 5 minutes, […] of the resulting supernatant are applied to a 125×4.6 mm Nucleosil® C18-5m-HPLC column (reversed-phase material supplied by Macherey & Nagel, Duren, FRG, based on silica gel that has been charged with C18 alkyl chains). The uncleaved icosapeptide and its cleavage products are eluted from the column by means of the following gradient: 100% eluant 1→50% eluant 1+50% eluant 2 (eluant 1: 10% acetonitrile, 90% H2 O, 0.1% trifluoroacetic acid (TFA); eluant 2: 75% acetonitrile, 25% H2 O, 0.08% TFA) for 15 minutes, throughflow rate 1 ml/min. The quantification of the eluted peptide fragments is carried out by measuring the peak height of the cleavage product at 215 nm.
In the test system described above (with […]), SEQ ID NO:1 the following IC50 values are obtained for Examples 1 to 5: […]

in vivo = settings: mouse, po, 120 mg/kg
Experimental: In order to determine their pharmacokinetics, the compounds of formula I are dissolved in dimethyl sulfoxide (DMSO) in a concentration of 240 mg/ml. The resulting solutions are diluted 1:20 (v/v) with 20% (w/v) aqueous hydroxypropyl-β-cyclodextrin solution in order to obtain a concentration of the test compound in question of 12 mg/ml. The resulting solution is treated briefly with ultrasound and administered orally to female BALB/c mice (Bomholt-garden, Copenhagen, Denmark) by artificial tube feeding at a dose of 120 mg/kg. At fixed times (for example 30, 60, 90, 120 min) after administration, mice are sacrificed and the plasma stored in heparinised test tubes. The blood is centrifuged (12,000×g, 5 min) and the plasma removed. The plasma is deproteinised by the addition of an equal volume of acetonitrile. The mixture is mixed using a vortex mixer and left to stand at room temperature for 20 to 30 minutes. The precipitate is pelleted by centrifugation (12,000×g, 5 min), and the concentration of the test compound is determined by reversed phase high performance liquid chromatography (HPLC).
The HPLC analysis of the samples obtained in accordance with the method described above is carried out on a 125×4.6 mm Nucleosil® C18 -column (reversed-phase material supplied by Macherey & Nagel, Duren, Germany, based on silica gel derivatised with carbon radicals having 18 carbon atoms), using a 2 cm long preliminary column of the same column material. The test is carried out with the following linear acetonitrile/water gradient (in each case in the presence of 0.05% trifluoroacetic acid): 20% acetonitrile to 100% acetonitrile for 20 min; then 5 min 100% acetonitrile; then returning to the initial conditions for 1 min and 4 min reequilibration. The flow rate is 1 ml/min. […] The test compound is detected by UV absorption measurement at 255 nm. Peaks are identified by the retention time and the UV spectrum between 205 and 400 nm. The concentrations are determined by the external standard method; the peak heights are obtained for determining the concentrations by comparison with standard curves.

HIV-protease = settings: cited from earlier work
virus replication = settings: in words; cited from earlier work
[1] = tested on: CD4-lymphocytes in the blood; settings: AIDS patients, in words; cited from earlier work
[2] = in vivo; cited from earlier work
[3] = in vivo, po; cited from earlier work

Row | Structure (SMILES) | EC90 (HIV-1/MN in MT-2-cells) [nM] | IC50 (HIV-1-protease) [nM] | concentration at 0.5 h (in vivo) [nM] | concentration at 1.5 h (in vivo) [nM] | inhibitory action against HIV-protease in vitro (HIV-protease) | virus replication in cell experiments (virus replication) | surrogate-marker (titre of the CD4-lymphocytes) [1] | blood levels in humans [2] | blood levels in rodents [3]
1 | COC(=O)N[C@H](C(=O)N[C@@H](Cc1ccccc1)[C@@H](O)CN(Cc1ccc(-c2ccccc2)cc1)NC(=O)[C@@H](NC(=O)OC)C(C)(C)C)C(C)(C)C [Example 5, 1-(4-Biphenylyl)-4(S)-hydroxy-5(S)-2,5-bis[N-(N-methoxycarbonyl-(L)-tert-leucyl)-amino]-6-phenyl-2-azahexane] | 3000 | 58 | 5530 | 4910 |  |  |  |  | 
2 | COC(=O)N[C@H](C(=O)NN(Cc1ccc(-c2ccccc2C#N)cc1)C[C@H](O)[C@H](Cc1ccccc1)NC(=O)[C@@H](NC(=O)OC)C(C)(C)C)C(C)C [Example 3, 1-[4-(2-Cyanophenyl)phenyl]-2-N-(N-methoxycarbonyl-(L)-valyl)-amino-4(S)-hydroxy-5(S)-N-(N-methoxycarbonyl-(L)-tert-leucyl)-amino-6-phenyl-2-azahexane] | 10000 | 38 | 1420 | 1950 |  |  |  |  | 
3 | COC(=O)N[C@H](C(=O)N[C@@H](Cc1ccccc1)[C@@H](O)CN(Cc1ccc(-c2ccccc2)cc1)NC(=O)[C@@H](NC(=O)OC)C(C)(C)C)C(C)C [Example 1, 1-(4-Biphenylyl)-2-N-(N-methoxycarbonyl-(L)-tert-leucyl)-amino-4(S)-hydroxy-5(S)-N-(N-methoxycarbonyl-(L)-valyl)-amino-6-phenyl-2-azahexane] | 3000 | 51 | 6330 | 5350 |  |  |  |  | 
4 | COC(=O)N[C@H](C(=O)NN(Cc1ccc(-c2ccccc2)cc1)C[C@H](O)[C@H](Cc1ccccc1)NC(=O)[C@@H](NC(=O)OC)C(C)(C)C)C(C)C [Example 2, 1-(4-Biphenylyl)-2-N-(N-methoxycarbonyl-(L)-valinyl)-amino-4(S)-hydroxy-5(S)-N-(N-methoxycarbonyl-(L)-tert-leucyl)-amino-6-phenyl-2-azahexane] | 3000 | 85 | 640 | 1110 |  |  |  |  | 
5 | CC(C)(C)NC(=O)[C@@H]1C[C@@H]2CCCC[C@@H]2CN1C[C@@H](O)[C@H](Cc1ccccc1)NC(=O)[C@H](CC(N)=O)NC(=O)c1ccc2ccccc2n1 [Ro 31-8959, N-tert-butyl-decahydro-2-[2(R)-hydroxy-4-phenyl-3(S)-[[N-2-quinolyl-carbonyl-L-asparaginyl]amino]butyl]-(4aS,8aS)-isoquinoline-3(S)-carboxamide] |  |  |  |  | exhibits an inhibitory action | suppression of virus replication | initial positive effects | usable blood levels | blood levels that are still usable
6 | COC(=O)N[C@H](C(=O)N[C@@H](Cc1ccccc1)[C@@H](O)CN(Cc1ccc(-c2ccccc2C#N)cc1)NC(=O)[C@@H](NC(=O)OC)C(C)(C)C)C(C)C [Example 4, 1-[4-(2-Cyanophenyl)phenyl)-2-N-(N-methoxycarbonyl-(L)-tert-leucyl)-amino-4(S)-hydroxy-5(S)-N-(N-methoxycarbonyl-(L)-valyl)-amino-6-phenyl-2-azahexane] | 3000 | 43 | 1680 | 1930 |  |  |  |  | 
